Laboratory results taken from patent US20140287995A1, “STABLE PHARMACEUTICAL FORMULATIONS OF GROWTH FACTOR PEPTIDES” (THE UNIVERSITY OF CHICAGO, priority 2011, published 2014).
Blank lines part the entries; values can stand above or below the molecule they belong to.

Tests used:
[1] = test system: non-transformed African Green Monkey kidney epithelial (BSC-1) cells; assay: Mitogenic response of BSC-1 cells (cell number counted in a hemocytometer after 4 days); format: cell-based; settings: for mitogenic activity of excipient without NX001: 20 mM histidine or 8.8% sucrose, alone or together, diluted 160-fold, FIG. 3A
Experimental: Various lots of unformulated NX001 can be assayed for bioactivity using the mitogenic response of BSC-1 cells as an indicator (see, for instance, U.S. Pat. No. 6,096,706). In this example, two lots of NX001 peptide (Lots PPL-WGF0501A and lot PPL WGF0801) were tested. Varying amounts of the two peptides were added to near-confluent monolayers of non-transformed African Green Monkey kidney epithelial (BSC-1) cells, and the number of cells was counted in a hemocytometer 4 days later.
Each formulation was reconstituted with 1.0 mL water, and was swirled to dissolve the contents. Each solution was then be diluted to 0.125 mg/mL with water. Aliquots of 8 μL each was added to triplicate wells of BSC-1 cells to yield final concentrations of NX001 from 0.05 to 0.4 μg/mL. The plates were incubated at 37° C. for 4 days, and then cells was counted. A third lot of NX001 (PPL-WGF0801) that is not formulated and not lyophilized was dissolved and diluted in water and was used as positive control.
To investigate whether excipients alone or in combination might modify the mitogenic activity, NX001 was added to 20 mM histidine, 8.8% sucrose or the combination and the solutions were diluted to 0.125 mg/mL. Each of the near confluent monolayers of BSC-1 cells in 5 ml DMEM containing 40 μM biotin and 0.5% calf serum received either 8 μl of water, 8 μl of an excipient, or 0.2 μg/ml of PPL-WGF0801 in a final volume of 8 μl of 8.8% sucrose or 20 mM histidine (pH 5.5), or both.
An experiment to determine whether the pH of formulated NX001 affected bioactivity was performed. In this experiment, NX001 (lot PPLWGF0801) was used as a positive control and was dissolved in water to […], diluted 1/160 with water to 0.125 mg/mL, and 8 μL was added to assay plates to a final concentration of 0.2 μg/mL. (see FIG. 4, bar 1).
NX001 (lot PPLWGF0801) was dissolved to 20 mg/mL in either water or PBS, diluted to 0.125 mg/mL in water or PBS as specified, and 8 μL was then added to assay plates to a final concentration of […].
To insure that formulation of NX001 yielded a solution for injection that was as physiological as possible, the formulation of NX001 was adjusted to provide a neutral, iso-osmotic preparation. The adjusted formulation contains 20 mg/mL NX001, 20 mM histidine, 200 mM sucrose at a pH of 7.25, or 80 mg/mL NX001, 20 mM histidine, 15 mM sucrose, pH 7.25. Vials of formulated and lyophilized NX001 at either 80 mg/mL or 20 mg/mL were reconstituted with 1 mL water and diluted to […] before bioassay.

[2] = pH of histidine/sucrose solutions after addition of NX001; format: physicochemical; settings: 20 mM histidine
Experimental: Next, 20 mM histidine, containing 8.8% sucrose was prepared and the pH was adjusted to 5.5 with HCl. Similarly, additional solutions of 20 mM histidine containing 8.8% sucrose were prepared and the pH was adjusted to 7.5 and 9.0. These solutions were diluted 1/160 and 8 μL aliquots added to plates of BSC-1 cells. As shown in FIG. 4 (bars 2, 3, 4), the solutions were not mitogenic themselves. NX001 was dissolved in each of solution to 0.125 mg/mL.

[3] = Stability of neutral lyophilized NX001 formulation, 12 months storage; format: physicochemical
Experimental: The stability of NX001 formulations was also evaluated. The stability of a lot of NX001 was monitored for 12 months at storage temperatures of 5° C. and 25° C. Appearance of lyophilized cake, reconstitution time, appearance of the reconstituted solution, pH, identity of the peptide, potency and purity of the peptide, and residual moisture were evaluated.
The evaluated parameters of neutral formulations of NX001 were not changed following 12 months storage at temperatures of 5° C. and 25° C.

[4] = 5° C., After 12 months of storage
[5] = 25° C., After 12 months of storage

Molecule: N[C@@H](Cc1c[nH]cn1)C(=O)O [histidine]
mitogenic activity of excipient without NX001 [1]: did not exhibit mitogenic activity

Molecule: OC[C@H]1O[C@@](CO)(O[C@H]2O[C@H](CO)[C@@H](O)[C@H](O)[C@H]2O)[C@@H](O)[C@@H]1O [sucrose]
mitogenic activity of excipient without NX001 [1]: did not exhibit mitogenic activity

pH of solution after dissolving NX001 ([2]; 8.8% sucrose adjusted to pH 5.5 before NX001): < 5.0
pH of solution after dissolving NX001 ([2]; 8.8% sucrose adjusted to pH 7.5 before NX001): ~5.5
pH of solution after dissolving NX001 ([2]; 8.8% sucrose adjusted to pH 9.0 before NX001): ~6.5
Cake appearance [3, 4]: White cake
Potency (% of NX001 recovered in main peak compared to stated vial concentration) [3, 4]: 99.6%
Purity [3, 4]: 98.8%
Reconstituted appearance [3, 4]: Clear, colorless
Reconstitution time [3, 4]: 64 s
Residual moisture [3, 4]: 0.80%
Total % impurities [3, 4]: 1.2%
pH [3, 4]: 7.2
Cake appearance ([3]; 5° C., Initial): White cake
Potency (% of NX001 recovered in main peak compared to stated vial concentration) ([3]; 5° C., Initial): 102%
Purity ([3]; 5° C., Initial): 98.8%
Reconstituted appearance ([3]; 5° C., Initial): Clear, colorless
Reconstitution time ([3]; 5° C., Initial): 45 s
Residual moisture ([3]; 5° C., Initial): 0.71%
Total % impurities ([3]; 5° C., Initial): 1.2%
pH ([3]; 5° C., Initial): 7.2
Cake appearance [3, 5]: White cake
Potency (% of NX001 recovered in main peak compared to stated vial concentration) [3, 5]: 97.9%
Purity [3, 5]: 98.4%
Reconstituted appearance [3, 5]: Clear, colorless
Reconstitution time [3, 5]: 72 s
Residual moisture [3, 5]: 1.05%
Total % impurities [3, 5]: 1.6%
pH [3, 5]: 7.3
Cake appearance ([3]; 25° C., Initial): White cake
Potency (% of NX001 recovered in main peak compared to stated vial concentration) ([3]; 25° C., Initial): 102%
Purity ([3]; 25° C., Initial): 98.8%
Reconstituted appearance ([3]; 25° C., Initial): Clear, colorless
Reconstitution time ([3]; 25° C., Initial): 45 s
Residual moisture ([3]; 25° C., Initial): 0.71%
Total % impurities ([3]; 25° C., Initial): 1.2%
pH ([3]; 25° C., Initial): 7.2
Molecule: AQPYPQGNHEASYG [NX001, growth factor peptide designated NX001; PPL-WGF codes are lots of it]
cell growth ([1]; NX001 0.2 μg/mL added separately from histidine/sucrose solutions of pH 5.5, 7.5, 9.0, FIG. 4 bars 8, 9, 10): increased cell growth to the same extent as the positive control alone
growth-promoting activity ([1]; NX001 0.2 μg/ml in the presence of 20 mM histidine (pH 5.5) alone, FIG. 3B): abolished
increase in cell number ([1]; NX001 0.2 μg/ml in the presence of 8.8% sucrose, FIG. 3B): 23%
growth-promoting activity ([1]; NX001 0.2 μg/ml in the presence of histidine plus sucrose, FIG. 3B): abolished
increase in cell number ([1]; NX001 alone, 0.2 μg/ml, FIG. 3B): 36%
increase in growth of BSC-1 cells ([1]; NX001 dissolved and diluted in water, 0.125 μg/mL, FIG. 5 bar 3): 24%
mitogenicity ([1]; NX001 dissolved in 20 mM histidine, 8.8% sucrose, resulting pH <5.0, ~5.5, ~6.5, not neutralized, FIG. 4 bars 5, 6, 7): not mitogenic
increase in cell number ([1]; NX001 dissolved in PBS and diluted in water, 0.125 μg/mL, FIG. 5 bar 4): increased cell number by the same amount
mitogenic activity ([1]; NX001 dissolved in histidine/sucrose (final pH 5.5), diluted in water, FIG. 5 bar 5): inactive
increase in cell number ([1]; NX001 dissolved in histidine/sucrose and diluted in PBS (pH 7.25), FIG. 5 bar 7): > 24%
mitogenic activity ([1]; NX001 dissolved in histidine/sucrose, neutralized with NaOH to pH 7.5, diluted in water, FIG. 5 bar 6): active
mitogenicity ([1]; NX001 in 20 mM histidine, 8.8% sucrose neutralized with NaOH to pH 7.5 before dilution in water, FIG. 4 bars 11, 12, 13): mitogenic to the same extent as the positive control
mitogenicity ([1]; formulated at 20 mg/mL in 20 mM histidine, 254 mM sucrose, pH 6.5, lyophilized, reconstituted with water, 0.05 to 0.4 μg/mL, FIG. 2): not mitogenic
mitogenic activity ([1]; lot PPL-WGF0501A dissolved in 20 mM histidine, 200 mM sucrose, pH 7.25 immediately before assay, FIG. 6 open circles): active
increase in cell number ([1]; lot PPL-WGF0501A dissolved in PBS immediately before assay, FIG. 6 closed circles): ~30%
maximal mitogenic response ([1]; unformulated NX001 peptide lots, BSC-1 cells, FIG. 1): ~26%

Molecule: gly-tyr-glu-ser-pro-ala-his-gly-tyr-gln-ala-pro-asn-gln (GYESPAHGYQAPNQ) [Scrambled NX001 peptide, 14-amino acid peptide including the same amino acids as NX001, but in scrambled order, reference compound]
promotion of cell growth ([1]; FIG. 6 closed squares): did not promote cell growth
